# From PubChem BioAssay AID2060883 (Molecular Pharmacology Branch, DTP, NCI, 2025)
# Tested on: 843782-103-R-J1-PDC complex spheroid viability
# Test: Anticancer human tumor 843782-103-R-J1-PDC patient-derived lung adenocarcinoma cell line growth inhibition [RAS]
# Conditions: for IC50: curve of first compound; for viability, T/C: stronger effect = lower value
# Outline: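 Multi-cell-type spheroids: tumor cells plus HUVEC endothelial cells and mesenchymal stem cells. RAS-pathway inhibitors were combined with targeted agents, each dosed in half-log steps down from clinical Cmax, or from 10 microM when Cmax was unknown.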
# 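Also: viability read after seven days of compound exposure.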
smiles,measurement,setting,value
C[C@@H](NC(=O)c1ncnc(N)c1Cl)c1ncc(C(=O)Nc2cc(C(F)(F)F)c(Cl)cn2)s1 + C=CC(=O)N1CCN(c2nc(OCC3CCCN3C)nc3c(F)c(-c4nc(N)cc(C)c4C(F)(F)F)c(Cl)cc23)C(C)C1,IC50,second compound 0.00316 µM,> 10 µM
same,IC50,second compound 0.01 µM,> 10 µM
same,IC50,second compound 0.0316 µM,> 10 µM
same,IC50,second compound 0.1 µM,> 10 µM
same,IC50,second compound 0.316 µM,> 10 µM
same,IC50,second compound 1 µM,> 10 µM
same,"viability, T/C","second compound 0.00316 µM, first compound 0.0316 µM",92.2%
same,"viability, T/C","second compound 0.00316 µM, first compound 0.1 µM",84.3%
same,"viability, T/C","second compound 0.00316 µM, first compound 0.316 µM",92.1%
same,"viability, T/C","second compound 0.00316 µM, first compound 1 µM",91.4%
same,"viability, T/C","second compound 0.00316 µM, first compound 3.16 µM",106%
same,"viability, T/C","second compound 0.00316 µM, first compound 10 µM",84.9%
same,"viability, T/C","second compound 0.01 µM, first compound 0.0316 µM",85.2%
same,"viability, T/C","second compound 0.01 µM, first compound 0.1 µM",84.2%
same,"viability, T/C","second compound 0.01 µM, first compound 0.316 µM",88.4%
same,"viability, T/C","second compound 0.01 µM, first compound 1 µM",88.5%
same,"viability, T/C","second compound 0.01 µM, first compound 3.16 µM",91.9%
same,"viability, T/C","second compound 0.01 µM, first compound 10 µM",91.8%
same,"viability, T/C","second compound 0.0316 µM, first compound 0.0316 µM",87.5%
same,"viability, T/C","second compound 0.0316 µM, first compound 0.1 µM",79.8%
same,"viability, T/C","second compound 0.0316 µM, first compound 0.316 µM",87%
same,"viability, T/C","second compound 0.0316 µM, first compound 1 µM",84.9%
same,"viability, T/C","second compound 0.0316 µM, first compound 3.16 µM",94.5%
same,"viability, T/C","second compound 0.0316 µM, first compound 10 µM",89.1%
same,"viability, T/C","second compound 0.1 µM, first compound 0.0316 µM",90.7%
same,"viability, T/C","second compound 0.1 µM, first compound 0.1 µM",83.7%
same,"viability, T/C","second compound 0.1 µM, first compound 0.316 µM",87.3%
same,"viability, T/C","second compound 0.1 µM, first compound 1 µM",90.8%
same,"viability, T/C","second compound 0.1 µM, first compound 3.16 µM",91.5%
same,"viability, T/C","second compound 0.1 µM, first compound 10 µM",88.7%
same,"viability, T/C","second compound 0.316 µM, first compound 0.0316 µM",88.5%
same,"viability, T/C","second compound 0.316 µM, first compound 0.1 µM",87.9%
same,"viability, T/C","second compound 0.316 µM, first compound 0.316 µM",90.4%
same,"viability, T/C","second compound 0.316 µM, first compound 1 µM",86.6%
same,"viability, T/C","second compound 0.316 µM, first compound 3.16 µM",95.7%
same,"viability, T/C","second compound 0.316 µM, first compound 10 µM",91.8%
same,"viability, T/C","second compound 1 µM, first compound 0.0316 µM",82.7%
same,"viability, T/C","second compound 1 µM, first compound 0.1 µM",92.2%
same,"viability, T/C","second compound 1 µM, first compound 0.316 µM",97%
same,"viability, T/C","second compound 1 µM, first compound 1 µM",85.3%
same,"viability, T/C","second compound 1 µM, first compound 3.16 µM",92.5%
same,"viability, T/C","second compound 1 µM, first compound 10 µM",87.3%
C=CC(=O)Nc1cc(Nc2nccc(-c3cn(C)c4ccccc34)n2)c(OC)cc1N(C)CCN(C)C + CCn1c(-c2cccnc2C(C)OC)c2c3cc(ccc31)N1CCOC(CC(NC(=O)C(C(C)C)N(C)C(=O)C3(F)CCN(C(=O)C#CC(C)(C)N(C)C)CC3)C(=O)N3CCCC(N3)C(=O)OCC(C)(C)C2)C1,IC50,second compound 0.000949 µM,0.0782 µM
same,IC50,second compound 0.003 µM,0.194 µM
same,IC50,second compound 0.00949 µM,0.0764 µM
same,IC50,second compound 0.03 µM,0.167 µM
same,IC50,second compound 0.0949 µM,0.0922 µM
same,IC50,second compound 0.3 µM,0.11 µM
same,"viability, T/C","second compound 0.000949 µM, first compound 0.00316 µM",75.9%
same,"viability, T/C","second compound 0.000949 µM, first compound 0.01 µM",60.9%
same,"viability, T/C","second compound 0.000949 µM, first compound 0.0316 µM",68.2%
same,"viability, T/C","second compound 0.000949 µM, first compound 0.1 µM",45.1%
same,"viability, T/C","second compound 0.000949 µM, first compound 0.316 µM",33.5%
same,"viability, T/C","second compound 0.000949 µM, first compound 1 µM",31.5%
same,"viability, T/C","second compound 0.003 µM, first compound 0.00316 µM",68.7%
same,"viability, T/C","second compound 0.003 µM, first compound 0.01 µM",57.3%
same,"viability, T/C","second compound 0.003 µM, first compound 0.0316 µM",66.3%
same,"viability, T/C","second compound 0.003 µM, first compound 0.1 µM",64.3%
same,"viability, T/C","second compound 0.003 µM, first compound 0.316 µM",39.6%
same,"viability, T/C","second compound 0.003 µM, first compound 1 µM",30.9%
same,"viability, T/C","second compound 0.00949 µM, first compound 0.00316 µM",67.5%
same,"viability, T/C","second compound 0.00949 µM, first compound 0.01 µM",69.1%
same,"viability, T/C","second compound 0.00949 µM, first compound 0.0316 µM",73%
same,"viability, T/C","second compound 0.00949 µM, first compound 0.1 µM",43.9%
same,"viability, T/C","second compound 0.00949 µM, first compound 0.316 µM",40.8%
same,"viability, T/C","second compound 0.00949 µM, first compound 1 µM",26.8%
same,"viability, T/C","second compound 0.03 µM, first compound 0.00316 µM",65.9%
same,"viability, T/C","second compound 0.03 µM, first compound 0.01 µM",73.6%
same,"viability, T/C","second compound 0.03 µM, first compound 0.0316 µM",58.9%
same,"viability, T/C","second compound 0.03 µM, first compound 0.1 µM",55.3%
same,"viability, T/C","second compound 0.03 µM, first compound 0.316 µM",44.4%
same,"viability, T/C","second compound 0.03 µM, first compound 1 µM",31.9%
same,"viability, T/C","second compound 0.0949 µM, first compound 0.00316 µM",73.4%
same,"viability, T/C","second compound 0.0949 µM, first compound 0.01 µM",62.6%
same,"viability, T/C","second compound 0.0949 µM, first compound 0.0316 µM",60.8%
same,"viability, T/C","second compound 0.0949 µM, first compound 0.1 µM",46.9%
same,"viability, T/C","second compound 0.0949 µM, first compound 0.316 µM",43%
same,"viability, T/C","second compound 0.0949 µM, first compound 1 µM",26.4%
same,"viability, T/C","second compound 0.3 µM, first compound 0.00316 µM",68%
same,"viability, T/C","second compound 0.3 µM, first compound 0.01 µM",66.2%
same,"viability, T/C","second compound 0.3 µM, first compound 0.0316 µM",63.9%
same,"viability, T/C","second compound 0.3 µM, first compound 0.1 µM",51.6%
same,"viability, T/C","second compound 0.3 µM, first compound 0.316 µM",35.2%
same,"viability, T/C","second compound 0.3 µM, first compound 1 µM",31.5%
